Data published in article PMC9692725, “Glutathione S-Transferase May Contribute to the Detoxification of (S)-(−)-Palasonin in Plutella xylostella (L.) via Direct Metabolism” (Insects, 2022).

Assays:
GSTs2 [1] = target: T1, GSTs2 (Plutella xylostella, UniProt Q6F436); assay: CDNB-GSH conjugation, absorbance at […] nm; assay type: biochemical; details: 1 mM GSH, 100 mM phosphate buffer, CDNB 0.05-1.6 mM
T1 construct: recombinant, pET-30a(+), E. coli BL21(DE3), Ni-NTA purified, about 25 kDa expected
T1 sequence (Q6F436 1-204): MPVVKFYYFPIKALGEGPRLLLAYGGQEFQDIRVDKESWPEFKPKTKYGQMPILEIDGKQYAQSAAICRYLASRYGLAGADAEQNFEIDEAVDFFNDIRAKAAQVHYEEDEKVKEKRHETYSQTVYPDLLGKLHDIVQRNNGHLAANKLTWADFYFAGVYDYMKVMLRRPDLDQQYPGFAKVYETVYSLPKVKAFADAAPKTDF

GSTd3 = target: T2, GSTd3 (Plutella xylostella, UniProt D7URW9); assay: CDNB-GSH conjugation, absorbance at […] nm; assay type: biochemical; details: 1 mM GSH, 100 mM phosphate buffer, CDNB 0.05-1.6 mM
T2 construct: gene PxGSTd; recombinant, pET-30a(+), E. coli BL21(DE3), Ni-NTA purified, about 25 kDa expected
T2 sequence (D7URW9 1-215): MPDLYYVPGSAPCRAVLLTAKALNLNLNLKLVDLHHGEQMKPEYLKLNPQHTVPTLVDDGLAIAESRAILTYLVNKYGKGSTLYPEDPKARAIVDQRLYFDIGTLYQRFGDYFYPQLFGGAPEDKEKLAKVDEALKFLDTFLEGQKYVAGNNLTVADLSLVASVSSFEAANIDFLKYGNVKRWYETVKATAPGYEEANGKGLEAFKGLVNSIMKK

GSTs1 [2] = target: T3, GSTs1 (Plutella xylostella, UniProt Q6F443); assay: CDNB-GSH conjugation, absorbance at […] nm; assay type: biochemical; details: 1 mM GSH, 100 mM phosphate buffer, CDNB 0.05-1.6 mM
T3 construct: recombinant, pET-30a(+), E. coli BL21(DE3), Ni-NTA purified, about 25 kDa expected
T3 sequence (Q6F443 1-204): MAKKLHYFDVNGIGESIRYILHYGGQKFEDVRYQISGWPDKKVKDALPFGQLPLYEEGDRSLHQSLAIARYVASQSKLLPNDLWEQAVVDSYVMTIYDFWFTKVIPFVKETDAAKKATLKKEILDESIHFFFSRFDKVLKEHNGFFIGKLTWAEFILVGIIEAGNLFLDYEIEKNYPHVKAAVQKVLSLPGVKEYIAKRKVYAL

GSTd5 = test system: T4, GSTd5; assay: CDNB-GSH conjugation, absorbance at […] nm; assay type: biochemical, Plutella xylostella; details: 1 mM GSH, 100 mM phosphate buffer, CDNB 0.05-1.6 mM
T4 construct: recombinant, pET-30a(+), E. coli BL21(DE3), Ni-NTA purified, about 25 kDa expected

GSTd4 = target: T5, GSTd4 (Plutella xylostella, UniProt X5CCB0); assay: CDNB-GSH conjugation, absorbance at […] nm; assay type: biochemical; details: 1 mM GSH, 100 mM phosphate buffer, CDNB 0.05-1.6 mM
T5 construct: recombinant, pET-30a(+), E. coli BL21(DE3), Ni-NTA purified, about 25 kDa expected
T5 sequence (X5CCB0 1-219): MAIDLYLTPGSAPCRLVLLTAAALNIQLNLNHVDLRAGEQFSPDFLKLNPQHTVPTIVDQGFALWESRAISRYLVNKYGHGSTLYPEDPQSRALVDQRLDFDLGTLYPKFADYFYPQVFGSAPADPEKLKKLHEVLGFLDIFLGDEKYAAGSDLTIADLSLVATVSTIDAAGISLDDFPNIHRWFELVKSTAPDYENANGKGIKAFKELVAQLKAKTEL

GSTd1 [3] = target: T6, GSTd1 (Plutella xylostella, UniProt A0A8S4F7H5); assay: CDNB-GSH conjugation, absorbance at […] nm; assay type: biochemical; details: 1 mM GSH, 100 mM phosphate buffer, CDNB 0.05-1.6 mM
T6 construct: gene PLXY2_LOCUS7699; recombinant, pET-30a(+), E. coli BL21(DE3), Ni-NTA purified, about 25 kDa expected
T6 sequence (A0A8S4F7H5 1-243 limits assumed): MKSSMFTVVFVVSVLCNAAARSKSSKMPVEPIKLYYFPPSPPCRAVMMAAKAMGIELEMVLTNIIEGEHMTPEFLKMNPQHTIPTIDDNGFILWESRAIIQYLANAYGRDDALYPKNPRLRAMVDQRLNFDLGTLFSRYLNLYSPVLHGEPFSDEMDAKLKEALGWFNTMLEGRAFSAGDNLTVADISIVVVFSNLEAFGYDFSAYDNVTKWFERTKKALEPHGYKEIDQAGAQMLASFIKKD

GSTe4 = target: T7, GSTe4 (Plutella xylostella, UniProt X5D048); assay: CDNB-GSH conjugation, absorbance at […] nm; assay type: biochemical; details: 1 mM GSH, 100 mM phosphate buffer, CDNB 0.05-1.6 mM
T7 construct: recombinant, pET-30a(+), E. coli BL21(DE3), Ni-NTA purified, about 25 kDa expected
T7 sequence (X5D048 1-220): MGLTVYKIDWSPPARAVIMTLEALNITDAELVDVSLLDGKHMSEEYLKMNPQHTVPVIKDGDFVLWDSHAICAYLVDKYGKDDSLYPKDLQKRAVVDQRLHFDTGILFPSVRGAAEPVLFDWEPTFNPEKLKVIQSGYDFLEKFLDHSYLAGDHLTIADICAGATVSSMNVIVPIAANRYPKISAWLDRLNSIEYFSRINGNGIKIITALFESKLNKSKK

GSTd2 [4] = target: T8, GSTd2 (Plutella xylostella, UniProt X5CJR6); assay: CDNB-GSH conjugation, absorbance at […] nm; assay type: biochemical; details: 1 mM GSH, 100 mM phosphate buffer, CDNB 0.05-1.6 mM
T8 construct: recombinant, pET-30a(+), E. coli BL21(DE3), Ni-NTA purified, about 25 kDa expected
T8 sequence (X5CJR6 1-247): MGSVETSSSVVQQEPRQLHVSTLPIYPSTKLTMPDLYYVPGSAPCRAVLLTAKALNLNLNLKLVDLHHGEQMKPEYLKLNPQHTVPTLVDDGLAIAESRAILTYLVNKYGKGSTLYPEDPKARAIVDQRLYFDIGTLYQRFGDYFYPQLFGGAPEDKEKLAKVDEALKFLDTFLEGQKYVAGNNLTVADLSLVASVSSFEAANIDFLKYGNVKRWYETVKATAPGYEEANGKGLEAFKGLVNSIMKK

GSTe5 = target: T9, GSTe5 (Plutella xylostella, UniProt X5CJR9); assay: CDNB-GSH conjugation, absorbance at […] nm; assay type: biochemical; details: 1 mM GSH, 100 mM phosphate buffer, CDNB 0.05-1.6 mM
T9 construct: recombinant, pET-30a(+), E. coli BL21(DE3), Ni-NTA purified, about 25 kDa expected
T9 sequence (X5CJR9 1-232): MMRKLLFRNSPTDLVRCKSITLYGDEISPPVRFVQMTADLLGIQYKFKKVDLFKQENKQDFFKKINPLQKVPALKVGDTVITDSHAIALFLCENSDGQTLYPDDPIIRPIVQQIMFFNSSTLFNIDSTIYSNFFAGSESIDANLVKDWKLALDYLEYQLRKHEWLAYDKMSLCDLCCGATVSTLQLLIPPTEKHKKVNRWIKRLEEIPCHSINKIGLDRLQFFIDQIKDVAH

GSTs2 [5] = target: T1, GSTs2; assay: inhibition of CDNB-GSH conjugation, absorbance at […] nm; assay type: biochemical; details: CDNB and GSH substrates, PBS, 10 min preincubation at 25 °C; competitive (authors' inference)
GSTd1 [6] = target: T6, GSTd1; assay: as above; assay type: biochemical; details: CDNB and GSH substrates, PBS, 10 min preincubation at 25 °C; competitive (authors' inference)
GSTs1 [7] = target: T3, GSTs1; assay: as above; assay type: biochemical; details: CDNB and GSH substrates, PBS, 10 min preincubation at 25 °C; competitive (authors' inference)
GSTd2 [8] = target: T8, GSTd2; assay: as above; assay type: biochemical; details: CDNB and GSH substrates, PBS, 10 min preincubation at 25 °C; competitive (authors' inference)

For O=[N+]([O-])c1ccc(Cl)c([N+](=O)[O-])c1 [1-chloro-2,4-dinitrobenzene], the Km (GSTs2 [1]) was 469 µM, the Km (GSTd3) was 1010 µM and the Km (GSTs1 [2]) was 684 µM. The Km (GSTd5) was 546 µM, the Km (GSTd4) was 1120 µM and the Km (GSTd1 [3]) was 691 µM. It also gave a Km (GSTe4) of 413 µM, a Km (GSTd2 [4]) of 682 µM and a Km (GSTe5) of 705 µM.
For CC12C(=O)OC(=O)C1C1CCC2O1 [(S)-(−)-palasonin], the “relative activity at 1 mM” value (GSTs2 [5]) was 0.51 fraction of control, the “relative activity at 1 mM” value (GSTd1 [6]) was 0.35 fraction of control and the “relative activity at 1 mM” value (GSTs1 [7]) was 0.26 fraction of control. The “relative activity at 1 mM” value (GSTd2 [8]) was 0.55 fraction of control.
